# Test: Iodide concentration in plasma of treated human volunteers by ion chromatography with amperometric detection
# Assay type: in vivo
# Settings: plasma samples from human volunteers treated with various dosages of sodium iodide, protein precipitation with acetonitrile
# Procedure: Plasma samples were obtained from Bioreclamation IVT in 10 mL aliquots of frozen plasma in lithium heparin. The plasma samples were normal plasma samples obtained from healthy male and female volunteers who were not treated with iodide. The plasma samples were prepared according to the following protocol. • 0.5 mL plasma was diluted 3:1 with pure acetonitrile for protein precipitation before analysis by Amperometric detection. (ex: 0.5 mL […] plus 1.5 mL pure Acetonitrile) • Samples were mixed gently and then centrifuged at max speed (14,000 rpm or 20,817 rcf) for 2 minutes. • Supernatant was carefully removed as to not disturb protein pellet, and transferred to a clean Eppendorf tube. • Supernatants were again centrifuged at max speed for 2 minutes. • Samples were spiked as necessary with NaI to fall between 2.5 and 200 ppb NaI concentrations. • 270 μL or 1 mL volumes of samples were analyzed by Amperometric detection on IC against a standard curve in a diluent matrix.
# Plasma samples were obtained from human volunteers treated with various dosages of sodium iodide. The plasma samples were processed and sodium iodide concentrations determined essentially as described in Example 3.
smiles,measurement,value
[I-].[Na+] [sodium iodide],determined serum concentrations of sodium iodide,positively correlated with dosages administered

# — patent US20200096496A1, “IODIDE DETECTION IN BLOOD PLASMA SAMPLES” (Faraday Pharmaceuticals, Inc., priority 2017, published 2020)
